Patent US10905139B2, “Refreshing beverage” (priority 2011, dated 2021)

Columns and labels:
[1] = tested on: cancer cells (in cancer tissue sections); experiment: fermentation metabolism of cancer cells with different sugars as food substrate (Warburg); assay type: cell-based; conditions: sugar as food substrate
Excerpt: On the other hand, tests carried out by the Nobel prizewinner Otto Heinrich Warburg have shown that the fermentation metabolism of cancer cells (in cancer tissue sections) progresses most effectively with glucose as a food substrate, specifically at a rate of 23.9 consumed units per unit of time, whereas, with the substrate fructose, it progresses less effectively by a factor of 7 (rate 3.3), and, with galactose, progresses even less effectively by a factor of 18 (rate 1.3). […] Galactose should therefore be a key sugar source in the diet of cancer patients.

[2] = tested on: cancer cells (in cancer tissue sections); conditions: sugar as food substrate; cited from earlier work
[3] = in vivo; cited from earlier work
[4] = in vivo; cited from earlier work; remark: listed apart in the source

| Compound | factor by which fermentation progresses less effectively than with glucose [1] | rate of fermentation metabolism [2] | glycemic index (GI) [3] | extent digested directly by the human body [4] | remaining fraction broken down by the intestinal flora [4] |
| --- | --- | --- | --- | --- | --- |
| O=C(CO)[C@@H](O)[C@H](O)[C@H](O)CO [fructose, reference compound] | 7 | 3.3 consumed units per unit of time | – | – | – |
| OC[C@H]1O[C@H](O[C@H]2O[C@H](CO)[C@@H](O)[C@H](O)[C@H]2O)[C@H](O)[C@@H](O)[C@@H]1O [trehalose] | – | – | ~32 | – | – |
| OC[C@H]1O[C@@](CO)(O[C@H]2O[C@H](CO)[C@@H](O)[C@H](O)[C@H]2O)[C@@H](O)[C@@H]1O [sucrose, reference compound] | – | – | 65 | – | – |
| O=C(CO)[C@@H](O)[C@@H](O)[C@H](O)CO [Tagatose] | – | – | 3 | approximately 20% | 80% |
| O=C[C@H](O)[C@@H](O)[C@@H](O)[C@H](O)CO [galactose] | 18 | 1.3 consumed units per unit of time | 20 | – | – |
| O=C[C@H](O)[C@H](O)[C@H](O)CO [Ribose] | – | – | negative | – | – |
| O=C[C@H](O)[C@@H](O)[C@H](O)[C@H](O)CO [glucose, reference compound] | – | 23.9 consumed units per unit of time | 100 | – | – |
| OC[C@H]1O[C@H](OC[C@H]2OC(O)(CO)[C@@H](O)[C@@H]2O)[C@H](O)[C@@H](O)[C@@H]1O (some centres unmarked) [isomaltulose] | – | – | 32 | – | – |
